Like-named read-outs stand apart in the source and are kept apart here.
Key:
[1] = test system: patients with COVID-19 requiring sedation and invasive mechanical ventilation
Text: (§1) Data was collected from electronic medical records (EMRs) of Rush University hospitals: Rush University Medical Center; Rush Copley Medical Center; and Rush Oak Park Hospital. Deidentified data was collected from the EMRs by the Rush Bioinformatics and Biostatistics Core. This retrospective cohort study received expedited approval by the Institutional Review Board at Rush University Medical Center.
We identified patients that were hospitalized at Rush University from Mar. […] Corticosteroids were not excluded because at the time of the study there were no standard practices or guidelines for using this medication in the study population at Rush. Clinical outcomes were assessed from the time of admission to the time of discharge.
We evaluated patients in each group for age, gender, race, ethnicity, and comorbidities at admission. […] Directly prior to intubation, a sequential organ failure assessment score (SOFA) was calculated for each group, and a PaO2/FiO2 (mmHg) was separately assessed.
Our primary tool to assess 28-day mortality was multivariable Cox proportional hazards regression.
(§2) For continuous variables, independent samples t-tests were performed. For each continuous variable, a Levene's test for equality of variances was performed. With significance on Levene's test for heterogeneity of variances, a Mann-Whitney U test was performed. […] Categorical variables were assessed with a Pearson's chi-squared test. If any expected count in a 2×2 table was less than 5, a Fisher's exact test was performed. […] We used p≤0.05 as the threshold for significance.
Simple imputation using the mean of the immediate preceding and succeeding most severe value over 24 hours was used for missing values for Pao2/Flo2 and mSOFA scores within the 24 hour time period of interest (intubation) (11-13). A complete case analysis was performed (14). All analyses were performed using SPSS version 27.

[2] = test system: patients with COVID-19 requiring sedation and invasive mechanical ventilation; conditions: for Hospital length of stay / ICU Free days at day 60 / ICU time / Intubation time / Ventilator free days at day 60: mean
Text: as §1
We identified patients that were hospitalized at Rush University from Mar. 1, 2020 to Jul. 30, 2020. […] Corticosteroids were not excluded because at the time of the study there were no standard practices or guidelines for using this medication in the study population at Rush. Clinical outcomes were assessed from the time of admission to the time of discharge.
as §2

[3] = 90% or greater vs less than 90%
[4] = time on dexmedetomidine/time on intubation 90% or greater (n=30)
[5] = time on dexmedetomidine/time on intubation less than 90% (n=122)

With `Cc1cccc([C@H](C)c2cnc[nH]2)c1C` [DEX, dexmedetomidine] the “relative risk reduction (28-day mortality)” value ([1]; DEX cohort vs cohort that did not receive DEX, 95% CI 42.4-69.6%) was 58.2%, the 28-day mortality ([1]; from start time of intubation, cohort receiving DEX (n=152)) was 27.0% and the “landmark analysis of 28-day mortality by start time of DEX” value ([1]; time cut-offs days 1-22 from intubation, earlier DEX use) was “lower aHRs and increased significance”. The “28-day mortality aHR” value ([1]; univariable Cox regression with DEX use as time-varying covariate, (95% CI)) was 0.56, the “Hospital length of stay” value ([2]; 90% or greater (n=30)) was 24.37 days and the “ICU Free days at day 60” value ([2]; 90% or greater (n=30)) was 36.45. The ICU time ([2]; 90% or greater (n=30)) was 18.76 days, the Intubation time ([2]; 90% or greater (n=30)) was 9.61 days and the “Ventilator free days at day 60” value ([2]; 90% or greater (n=30)) was 43.63. The “Hospital length of stay, Difference Between Groups” value [2, 3] was -1.38 days, the “ICU Free days at day 60, Difference Between Groups” value [2, 3] was 11.48 and the “ICU time, Difference Between Groups” value [2, 3] was -1.83 days. For the same compound, the “Intubation time, Difference Between Groups” value [2, 3] was -5.92 days, the “Ventilator free days at day 60, Difference Between Groups” value [2, 3] was 15.55 and the “In-hospital mortality, Risk Ratio” value ([2]; 90% or greater vs less than 90% of intubation time on dexmedetomidine) was 0.277. The “Hospital length of stay” value ([2]; less than 90% (n=122)) was 25.75 days, the “ICU Free days at day 60” value ([2]; less than 90% (n=122)) was 24.98 and the ICU time ([2]; less than 90% (n=122)) was 20.59 days. The Intubation time ([2]; less than 90% (n=122)) was 15.53 days, the “Ventilator free days at day 60” value ([2]; less than 90% (n=122)) was 28.08 and the “In-hospital mortality (%)” value [2, 4] was “(10.0%)”. The “In-hospital mortality (count)” value [2, 4] was 3/30, the “In-hospital mortality (%)” value [2, 5] was “(36.1%)” and the “In-hospital mortality (count)” value [2, 5] was 44/122.
